Results as given in ChEMBL document CHEMBL1201862, “PubChem BioAssay data set” (2004).
Values belong to the compound of their own block, whether it stands above or below them. The source made the active and inactive calls.

Columns and labels:
[1] = biological target: Glyceraldehyde-3-phosphate dehydrogenase (Homo sapiens, UniProt P04406)
[2] = biological target: T1, Alkaline phosphatase, tissue-nonspecific isozyme (Homo sapiens, UniProt P05186); experiment: human TNAP enzyme inhibitors, SAR follow-up, biochemical, luminescent, dose response (AID 1056)
T1 sequence (P05186 whole entry): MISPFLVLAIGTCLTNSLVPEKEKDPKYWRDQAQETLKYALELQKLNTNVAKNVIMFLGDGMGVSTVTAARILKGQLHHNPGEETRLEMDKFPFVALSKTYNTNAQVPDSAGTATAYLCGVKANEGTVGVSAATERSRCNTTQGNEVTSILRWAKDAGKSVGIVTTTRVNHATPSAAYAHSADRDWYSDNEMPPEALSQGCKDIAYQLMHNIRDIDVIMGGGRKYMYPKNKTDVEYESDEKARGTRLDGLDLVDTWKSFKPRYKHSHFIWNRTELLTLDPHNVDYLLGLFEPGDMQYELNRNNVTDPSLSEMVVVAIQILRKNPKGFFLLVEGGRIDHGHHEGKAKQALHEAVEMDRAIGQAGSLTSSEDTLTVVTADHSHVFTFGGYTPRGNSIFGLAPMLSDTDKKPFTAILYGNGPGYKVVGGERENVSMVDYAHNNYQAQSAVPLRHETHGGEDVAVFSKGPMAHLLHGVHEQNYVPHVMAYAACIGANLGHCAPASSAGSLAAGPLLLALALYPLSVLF

Streptococcus = experiment: Group A Streptococcus viability loss, dose response, counter-screen for streptokinase expression inhibitor project, luminescence, BacTiterGlo (AID 1915); assay type: functional, organism-based;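 note: potency for reduction of bacterial viability or growth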
[3] = test system: Streptococcus sp. 'group A'; experiment: growth inhibition of control SK(-) GAS strain, dose response, counter-screen for streptokinase expression inhibitor project, luminescence, kanamycin, BacTiterGlo, confirmation (AID 1900); assay type: functional, organism-based
[4] = THP-1 cell cytotoxicity, dose response, cytotoxicity control for Vif-APOBEC3G degradation inhibitor project, THP-1 cells (AID 1117359); assay type: functional; details: Human immunodeficiency virus 1, THP-1
Cytochrome P450 1A2 = biological target: T2, Cytochrome P450 1A2 (Homo sapiens, UniProt P05177);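 note: PubChem cytochrome P450 panel assay, CYP1A2 panel member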
T2 sequence (P05177 whole entry): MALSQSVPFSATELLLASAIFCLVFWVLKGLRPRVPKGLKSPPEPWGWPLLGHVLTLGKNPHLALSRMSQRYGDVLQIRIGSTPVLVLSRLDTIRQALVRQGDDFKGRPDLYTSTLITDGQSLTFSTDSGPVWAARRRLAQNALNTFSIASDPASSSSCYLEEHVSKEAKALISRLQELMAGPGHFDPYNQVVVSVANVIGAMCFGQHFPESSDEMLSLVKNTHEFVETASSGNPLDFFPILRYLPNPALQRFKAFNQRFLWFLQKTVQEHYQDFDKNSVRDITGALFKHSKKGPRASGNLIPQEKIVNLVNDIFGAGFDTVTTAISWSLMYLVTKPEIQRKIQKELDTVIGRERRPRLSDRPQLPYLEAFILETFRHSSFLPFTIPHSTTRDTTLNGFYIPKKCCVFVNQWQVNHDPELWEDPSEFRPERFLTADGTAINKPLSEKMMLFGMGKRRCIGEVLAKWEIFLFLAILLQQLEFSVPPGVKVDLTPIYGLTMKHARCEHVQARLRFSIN

Cytochrome P450 3A4 = Cytochrome P450 3A4 (Homo sapiens, UniProt P08684);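 note: CYP3A4 tested as one member of a cytochrome P450 panel screen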
Chain of Cytochrome P450 3A4 (P08684 whole entry): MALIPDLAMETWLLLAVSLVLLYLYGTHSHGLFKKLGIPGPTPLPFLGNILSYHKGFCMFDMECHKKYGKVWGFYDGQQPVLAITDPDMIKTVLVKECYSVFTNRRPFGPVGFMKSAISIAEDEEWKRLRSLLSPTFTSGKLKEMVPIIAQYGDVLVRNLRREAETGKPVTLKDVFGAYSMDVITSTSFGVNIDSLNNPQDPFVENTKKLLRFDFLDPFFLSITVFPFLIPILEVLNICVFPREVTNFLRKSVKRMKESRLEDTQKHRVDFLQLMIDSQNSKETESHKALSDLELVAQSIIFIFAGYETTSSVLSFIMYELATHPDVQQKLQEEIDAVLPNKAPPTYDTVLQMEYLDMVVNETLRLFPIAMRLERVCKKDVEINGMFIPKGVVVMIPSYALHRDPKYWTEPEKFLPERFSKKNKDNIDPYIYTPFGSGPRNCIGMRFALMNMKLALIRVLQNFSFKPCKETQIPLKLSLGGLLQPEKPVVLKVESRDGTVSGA

[5] = biological target: T3, Heat shock factor protein 1 (Mus musculus, UniProt P38532); experiment: inhibition of MG132-induced HSE-luciferase signal, confirmation, cell-based, NIH3T3, luminescence, dose retest (AID 2382); assay type: functional;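 note: NIH3T3 fibroblasts with HSF1-driven luciferase reporter stressed by proteasome inhibitor MG132; luminescence from HSF1-driven luciferase expression after 8 hours of MG132 stress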
T3 sequence (P38532 whole entry): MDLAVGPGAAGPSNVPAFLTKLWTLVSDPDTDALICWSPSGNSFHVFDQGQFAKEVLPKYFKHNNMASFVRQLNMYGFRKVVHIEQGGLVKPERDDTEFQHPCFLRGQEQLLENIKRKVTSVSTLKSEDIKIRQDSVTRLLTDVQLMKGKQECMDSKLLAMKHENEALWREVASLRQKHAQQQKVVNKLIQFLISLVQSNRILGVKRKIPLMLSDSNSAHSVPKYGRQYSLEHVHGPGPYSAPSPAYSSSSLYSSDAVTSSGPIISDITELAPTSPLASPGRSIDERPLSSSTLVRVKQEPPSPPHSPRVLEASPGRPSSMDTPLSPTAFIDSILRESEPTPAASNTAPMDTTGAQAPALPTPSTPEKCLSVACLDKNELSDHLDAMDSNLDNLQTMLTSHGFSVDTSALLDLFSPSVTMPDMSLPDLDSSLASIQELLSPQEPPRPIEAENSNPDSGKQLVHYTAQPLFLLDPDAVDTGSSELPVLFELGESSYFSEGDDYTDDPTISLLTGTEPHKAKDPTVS

Cytochrome P450 2D6 = Cytochrome P450 2D6 (Homo sapiens, UniProt P10635);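 note: CYP2D6 member of a cytochrome P450 panel assay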
Chain of Cytochrome P450 2D6 (P10635 whole entry, the tested form may be a part): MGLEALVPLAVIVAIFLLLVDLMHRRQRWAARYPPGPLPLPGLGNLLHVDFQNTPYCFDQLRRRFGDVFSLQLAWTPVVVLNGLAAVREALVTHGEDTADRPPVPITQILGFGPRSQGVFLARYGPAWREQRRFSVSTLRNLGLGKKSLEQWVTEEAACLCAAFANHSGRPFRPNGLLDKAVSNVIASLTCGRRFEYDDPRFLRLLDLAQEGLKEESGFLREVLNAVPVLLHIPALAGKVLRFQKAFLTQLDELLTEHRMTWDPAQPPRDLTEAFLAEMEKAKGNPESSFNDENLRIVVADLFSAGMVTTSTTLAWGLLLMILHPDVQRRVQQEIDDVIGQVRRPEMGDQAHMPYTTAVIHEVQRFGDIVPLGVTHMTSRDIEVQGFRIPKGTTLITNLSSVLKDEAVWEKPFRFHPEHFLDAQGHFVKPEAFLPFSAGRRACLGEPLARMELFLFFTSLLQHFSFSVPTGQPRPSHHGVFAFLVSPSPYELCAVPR

[6] = biological target: T4, Carboxy-terminal domain RNA polymerase II polypeptide A small phosphatase 1 (Homo sapiens, UniProt Q9GZU7); experiment: inhibitors of CTDSP1, concentration-response testing, biochemical assay, absorbance-based, actives from ultra-high-throughput screening (AID 540297); assay type: functional
T4 sequence (Q9GZU7 whole entry): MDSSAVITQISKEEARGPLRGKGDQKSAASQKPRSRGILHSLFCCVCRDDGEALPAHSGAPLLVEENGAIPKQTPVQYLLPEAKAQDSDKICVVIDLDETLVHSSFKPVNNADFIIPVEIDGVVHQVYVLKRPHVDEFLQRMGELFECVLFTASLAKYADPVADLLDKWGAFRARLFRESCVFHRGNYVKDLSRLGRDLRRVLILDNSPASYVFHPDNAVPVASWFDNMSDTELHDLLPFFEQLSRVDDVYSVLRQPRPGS

[7] = biological target: Induced myeloid leukemia cell differentiation protein Mcl-1 (Homo sapiens, UniProt Q07820); assay type: functional
[8] = LGR2 antagonists, dose response, cell-based, HEK293, CRE-luciferase reporter, cherry pick, set 2 (AID 743343); assay type: functional;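 note: transfected cells were stimulated with diluted bursicon conditioned medium after compound addition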
[9] = biological target: T5, High affinity choline transporter 1 (Homo sapiens, UniProt Q9GZV3); experiment: CHT inhibitors, dose response, cell-based, 5-point CRC, membrane potential dye (AID 504840); assay type: functional
T5 sequence (Q9GZV3 whole entry): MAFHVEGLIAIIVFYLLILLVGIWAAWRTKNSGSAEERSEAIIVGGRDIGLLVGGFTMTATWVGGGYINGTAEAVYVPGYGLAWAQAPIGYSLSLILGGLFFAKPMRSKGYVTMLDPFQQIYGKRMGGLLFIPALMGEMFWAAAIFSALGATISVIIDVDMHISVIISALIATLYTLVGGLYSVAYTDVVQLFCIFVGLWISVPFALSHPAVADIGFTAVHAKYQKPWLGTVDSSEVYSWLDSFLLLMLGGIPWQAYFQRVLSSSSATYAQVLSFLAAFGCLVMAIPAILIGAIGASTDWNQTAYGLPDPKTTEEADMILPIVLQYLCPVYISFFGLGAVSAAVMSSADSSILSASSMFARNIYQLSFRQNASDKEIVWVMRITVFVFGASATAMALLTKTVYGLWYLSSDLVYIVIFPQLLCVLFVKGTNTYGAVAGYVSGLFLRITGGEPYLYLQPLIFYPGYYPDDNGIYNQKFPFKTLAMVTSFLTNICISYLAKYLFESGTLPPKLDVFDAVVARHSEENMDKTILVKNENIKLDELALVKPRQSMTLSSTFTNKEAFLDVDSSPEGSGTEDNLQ

[10] = biological target: T6, Short transient receptor potential channel 4 (Mus musculus, UniProt Q9QUQ5); experiment: mouse TRPC4 channel activators, dose response, cell-based, HEK293 TRPC4/mu-opioid, Fluo-4 calcium (AID 434937); assay type: functional
T6 sequence (Q9QUQ5 whole entry): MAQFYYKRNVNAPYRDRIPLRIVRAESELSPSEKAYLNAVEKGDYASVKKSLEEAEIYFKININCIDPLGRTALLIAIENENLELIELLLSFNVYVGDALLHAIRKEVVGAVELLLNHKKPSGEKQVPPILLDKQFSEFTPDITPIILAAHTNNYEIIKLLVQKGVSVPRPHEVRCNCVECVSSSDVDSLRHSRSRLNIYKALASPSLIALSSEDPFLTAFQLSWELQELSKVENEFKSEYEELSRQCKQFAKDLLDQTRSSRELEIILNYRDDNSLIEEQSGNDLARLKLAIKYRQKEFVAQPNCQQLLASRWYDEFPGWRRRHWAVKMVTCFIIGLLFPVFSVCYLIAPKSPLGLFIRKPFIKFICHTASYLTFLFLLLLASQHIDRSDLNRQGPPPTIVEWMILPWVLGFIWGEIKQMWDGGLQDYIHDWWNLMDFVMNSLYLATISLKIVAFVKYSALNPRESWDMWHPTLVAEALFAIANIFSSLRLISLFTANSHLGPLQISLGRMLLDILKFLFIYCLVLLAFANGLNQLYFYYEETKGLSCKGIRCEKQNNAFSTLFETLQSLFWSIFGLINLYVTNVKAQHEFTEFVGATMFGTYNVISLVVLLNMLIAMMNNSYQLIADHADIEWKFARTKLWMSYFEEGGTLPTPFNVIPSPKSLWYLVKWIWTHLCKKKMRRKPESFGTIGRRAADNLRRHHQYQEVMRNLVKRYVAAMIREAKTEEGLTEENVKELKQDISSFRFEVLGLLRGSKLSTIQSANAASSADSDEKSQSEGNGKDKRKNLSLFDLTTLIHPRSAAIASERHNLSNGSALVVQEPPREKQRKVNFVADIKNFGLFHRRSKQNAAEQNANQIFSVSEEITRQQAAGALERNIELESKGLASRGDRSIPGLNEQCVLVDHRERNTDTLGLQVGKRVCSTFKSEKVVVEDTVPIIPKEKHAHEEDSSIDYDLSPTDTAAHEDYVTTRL

[11] = biological target: T7, Voltage-gated N-type calcium channel alpha-1B subunit/Amyloid beta A4 precursor protein-binding family A member 1 (Homo sapiens, UniProt Q00975+Q02410); assay type: protein assay
T7 sequence (Q00975 whole entry): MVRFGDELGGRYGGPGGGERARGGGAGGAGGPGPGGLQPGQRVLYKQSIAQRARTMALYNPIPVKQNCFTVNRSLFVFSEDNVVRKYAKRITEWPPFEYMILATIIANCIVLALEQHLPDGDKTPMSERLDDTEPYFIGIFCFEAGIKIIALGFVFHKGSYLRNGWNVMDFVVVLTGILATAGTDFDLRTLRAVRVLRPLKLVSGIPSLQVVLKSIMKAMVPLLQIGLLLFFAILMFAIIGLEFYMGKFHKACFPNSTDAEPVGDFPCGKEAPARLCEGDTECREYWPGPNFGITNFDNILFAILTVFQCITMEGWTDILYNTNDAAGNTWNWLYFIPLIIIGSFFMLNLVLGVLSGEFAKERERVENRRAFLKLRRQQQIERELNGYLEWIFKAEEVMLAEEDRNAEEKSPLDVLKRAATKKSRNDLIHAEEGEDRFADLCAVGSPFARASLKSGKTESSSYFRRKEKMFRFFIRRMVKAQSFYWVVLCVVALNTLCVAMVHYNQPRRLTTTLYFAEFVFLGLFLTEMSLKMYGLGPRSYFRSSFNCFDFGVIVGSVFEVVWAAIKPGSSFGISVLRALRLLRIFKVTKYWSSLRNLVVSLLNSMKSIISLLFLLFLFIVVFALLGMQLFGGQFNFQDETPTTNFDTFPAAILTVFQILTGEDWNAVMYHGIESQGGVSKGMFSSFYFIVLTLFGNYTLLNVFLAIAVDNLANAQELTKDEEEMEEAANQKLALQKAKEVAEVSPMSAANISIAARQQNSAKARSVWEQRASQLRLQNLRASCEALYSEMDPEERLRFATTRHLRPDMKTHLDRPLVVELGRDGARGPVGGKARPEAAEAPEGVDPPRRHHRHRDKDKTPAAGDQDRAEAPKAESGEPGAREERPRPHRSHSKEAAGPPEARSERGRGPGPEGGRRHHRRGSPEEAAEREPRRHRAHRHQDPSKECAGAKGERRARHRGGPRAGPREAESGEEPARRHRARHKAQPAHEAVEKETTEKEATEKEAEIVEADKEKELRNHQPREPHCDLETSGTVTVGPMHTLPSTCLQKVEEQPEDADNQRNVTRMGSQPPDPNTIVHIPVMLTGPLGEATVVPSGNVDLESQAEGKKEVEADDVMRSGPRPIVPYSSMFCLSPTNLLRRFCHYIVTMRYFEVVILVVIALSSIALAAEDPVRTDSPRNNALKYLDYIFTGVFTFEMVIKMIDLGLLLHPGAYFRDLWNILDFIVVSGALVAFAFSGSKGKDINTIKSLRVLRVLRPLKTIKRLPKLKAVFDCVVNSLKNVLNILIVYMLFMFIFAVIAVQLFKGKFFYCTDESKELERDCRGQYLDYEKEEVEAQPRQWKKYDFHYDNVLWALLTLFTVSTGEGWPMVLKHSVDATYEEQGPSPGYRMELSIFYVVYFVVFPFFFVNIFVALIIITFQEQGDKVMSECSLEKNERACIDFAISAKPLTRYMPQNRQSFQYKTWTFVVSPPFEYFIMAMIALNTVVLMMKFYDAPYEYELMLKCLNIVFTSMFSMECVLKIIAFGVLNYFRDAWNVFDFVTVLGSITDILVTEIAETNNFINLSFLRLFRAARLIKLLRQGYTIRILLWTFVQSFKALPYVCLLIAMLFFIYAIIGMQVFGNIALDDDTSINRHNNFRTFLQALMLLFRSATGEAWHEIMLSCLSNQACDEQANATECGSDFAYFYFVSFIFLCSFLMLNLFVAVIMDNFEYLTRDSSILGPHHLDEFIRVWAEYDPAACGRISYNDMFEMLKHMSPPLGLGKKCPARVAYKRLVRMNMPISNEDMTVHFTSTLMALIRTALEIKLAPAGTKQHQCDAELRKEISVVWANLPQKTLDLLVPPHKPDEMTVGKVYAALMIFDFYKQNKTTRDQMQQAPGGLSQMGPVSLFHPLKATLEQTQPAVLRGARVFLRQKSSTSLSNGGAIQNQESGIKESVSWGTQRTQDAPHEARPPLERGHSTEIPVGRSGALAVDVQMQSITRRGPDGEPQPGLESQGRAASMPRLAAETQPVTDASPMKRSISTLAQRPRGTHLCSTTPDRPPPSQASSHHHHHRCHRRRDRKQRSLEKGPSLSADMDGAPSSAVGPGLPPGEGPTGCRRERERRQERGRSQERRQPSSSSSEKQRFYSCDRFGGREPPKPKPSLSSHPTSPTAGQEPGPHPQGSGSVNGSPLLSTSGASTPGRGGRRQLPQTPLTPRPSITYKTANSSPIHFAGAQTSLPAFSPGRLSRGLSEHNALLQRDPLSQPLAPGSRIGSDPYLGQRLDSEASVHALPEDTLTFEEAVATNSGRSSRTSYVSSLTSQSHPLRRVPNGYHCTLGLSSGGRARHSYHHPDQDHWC
T7 sequence (Q02410 whole entry): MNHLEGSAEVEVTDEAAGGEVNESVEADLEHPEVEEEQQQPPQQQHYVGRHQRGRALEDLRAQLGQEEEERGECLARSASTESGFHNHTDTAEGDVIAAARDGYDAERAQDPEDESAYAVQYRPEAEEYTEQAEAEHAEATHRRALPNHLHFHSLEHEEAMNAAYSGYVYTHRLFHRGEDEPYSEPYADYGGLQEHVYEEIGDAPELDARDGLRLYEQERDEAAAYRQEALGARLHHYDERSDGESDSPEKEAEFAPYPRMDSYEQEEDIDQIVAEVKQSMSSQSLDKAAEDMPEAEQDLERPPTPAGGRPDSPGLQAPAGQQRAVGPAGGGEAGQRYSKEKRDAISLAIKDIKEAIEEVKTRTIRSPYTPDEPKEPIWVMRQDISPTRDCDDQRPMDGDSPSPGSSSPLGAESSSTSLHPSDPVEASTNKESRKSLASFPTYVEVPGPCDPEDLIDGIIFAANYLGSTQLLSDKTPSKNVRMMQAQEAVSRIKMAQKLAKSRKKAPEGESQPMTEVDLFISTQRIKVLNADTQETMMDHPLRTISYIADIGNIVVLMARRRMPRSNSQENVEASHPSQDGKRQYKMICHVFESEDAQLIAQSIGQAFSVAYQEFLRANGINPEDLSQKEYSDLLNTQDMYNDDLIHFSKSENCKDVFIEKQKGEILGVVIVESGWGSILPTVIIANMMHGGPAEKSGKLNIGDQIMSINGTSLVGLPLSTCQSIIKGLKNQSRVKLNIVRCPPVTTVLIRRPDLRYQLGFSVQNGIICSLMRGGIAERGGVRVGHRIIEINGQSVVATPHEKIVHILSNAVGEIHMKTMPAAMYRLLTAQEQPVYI

[12] = biological target: T7, Voltage-gated N-type calcium channel alpha-1B subunit/Amyloid beta A4 precursor protein-binding family A member 1; assay type: protein assay; remark: listed apart in the source
Cytochrome P450 2C19 = Cytochrome P450 2C19 (Homo sapiens, UniProt P33261); experiment: Cytochrome panel assay with activity outcomes. Panel member name: p450-cyp2c19 Compounds with AC50 equal or less than 10 uM are considered active; assay type: functional; details: read-out: AC50
Cytochrome P450 2C9 = Cytochrome P450 2C9 (Homo sapiens, UniProt P11712)
[13] = cytotoxicity in OVCAR8 ovarian cancer cells, dose response, PAX8 project, cell-based, plate reader, dry powder samples (AID 743197); assay type: functional; details: OVCAR-8
Paired box protein Pax-8 = Paired box protein Pax-8 (Homo sapiens, UniProt Q06710); experiment: inhibitors of PAX8-driven TPO luciferase reporter, dose response, RMG-I cells, cherry-pick (AID 687027); assay type: functional, cell-based;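 note: luciferase reporter driven by Pax8 target thyroperoxidase promoter measured by SteadyGlo luminescence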
Chain of Paired box protein Pax-8 (Q06710 whole entry): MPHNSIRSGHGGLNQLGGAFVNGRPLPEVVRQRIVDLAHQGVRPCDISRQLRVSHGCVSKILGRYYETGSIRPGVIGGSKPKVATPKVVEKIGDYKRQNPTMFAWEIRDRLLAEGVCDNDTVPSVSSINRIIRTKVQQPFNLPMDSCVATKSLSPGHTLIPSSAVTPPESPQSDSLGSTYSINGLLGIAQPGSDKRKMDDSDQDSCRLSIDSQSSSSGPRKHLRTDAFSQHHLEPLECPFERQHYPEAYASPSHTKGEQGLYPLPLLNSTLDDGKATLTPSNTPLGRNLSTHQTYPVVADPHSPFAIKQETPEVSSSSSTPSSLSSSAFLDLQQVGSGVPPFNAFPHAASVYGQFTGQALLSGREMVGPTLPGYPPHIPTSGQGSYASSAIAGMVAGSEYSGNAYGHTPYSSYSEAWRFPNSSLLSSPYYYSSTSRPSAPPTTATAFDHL

[14] = NIH:OVCAR-3 ovarian cancer cell cytotoxicity, dose response, PAX8 inhibitor project, plate reader, dry powder samples (AID 743044); assay type: functional, cell-based

Chain of Glyceraldehyde-3-phosphate dehydrogenase (P04406 whole entry): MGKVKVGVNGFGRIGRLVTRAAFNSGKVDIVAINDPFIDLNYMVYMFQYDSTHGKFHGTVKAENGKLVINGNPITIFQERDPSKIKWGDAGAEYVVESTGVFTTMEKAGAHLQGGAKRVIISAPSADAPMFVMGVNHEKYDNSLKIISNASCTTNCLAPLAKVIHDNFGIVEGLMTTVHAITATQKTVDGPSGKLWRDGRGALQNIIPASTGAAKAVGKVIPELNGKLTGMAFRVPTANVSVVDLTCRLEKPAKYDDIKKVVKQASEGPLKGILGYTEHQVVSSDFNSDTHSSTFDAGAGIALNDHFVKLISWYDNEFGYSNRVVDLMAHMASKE

IC50 [1]: > 100 µM (not active) | IC50 [2]: 10.9 µM (active)
SMILES: O=S(=O)(Nc1cccnc1)c1ccc(Br)cc1OC(F)(F)F

SMILES: CCCN=C1C(=O)C2=C(C(O)=C1C)N1CC3NC3[C@@]1(OC)C2COC(N)=O (stereo partly drawn)
EC50 (Streptococcus): 0.153 µM (active) | EC50 [3]: < 0.06 µM (active) | CC50 [4]: 1.52 µM (active)

AC50 (Cytochrome P450 1A2): 15.8 µM (inconclusive) | AC50 (Cytochrome P450 3A4): inconclusive
SMILES: Cc1ccccc1OCC(=O)Nc1ccc(N2CCN(C(=O)C(C)C)CC2)c(Cl)c1

SMILES: CCCC[C@@H]1CN=C(S)N1CCc1cccc2ccccc12
CC50 [4]: > 40 µM (active)

EC50 [5]: > 195 µM (not active)
SMILES: NNC(=O)c1ccc(N2CCc3ccccc32)c([N+](=O)[O-])c1
CC50 [4]: > 40 µM (active)

AC50 (Cytochrome P450 3A4): inconclusive | AC50 (Cytochrome P450 2D6): 17.8 µM (inconclusive)
SMILES: c1ccc(-c2noc(CSc3nnnn3C3CCCCC3)n2)cc1

AC50 (Cytochrome P450 3A4): inconclusive
SMILES: CCN(CC)S(=O)(=O)c1ccc(C(=O)NC2=C(C(=O)OC)SCC2)cc1

IC50 [6]: 7.93 µM (active) | IC50 [7]: 4.55 µM (active)
SMILES: Cc1ccc(NC(=O)CN2C(=O)N/C(=C/c3cc(C)n(-c4ccc(C(=O)O)cc4)c3C)C2=O)cc1

IC50 [6]: 4.69 µM (active)
SMILES: Cn1c(SCC(=O)Nc2nncs2)nnc1C1CC1

SMILES: O=S1(=O)CCOC[C@H](CC2CCCCC2)N1Cc1ccccc1F
AC50 [8]: 53.7 µM (active)

IC50 [6]: 5.84 µM (active)
SMILES: Nc1cc(C(=O)OCC(=O)c2ccc(CC(=O)N3CCOCC3)s2)ccc1Cl

SMILES: COc1ccccc1C(=O)NNC(=S)NC(=O)c1sc2ccccc2c1Cl
EC50 (Streptococcus): 0.878 µM (active) | EC50 [3]: 0.072 µM (active) | IC50 [9]: 14.5 µM (active) | EC50 [10]: 5.31 µM (active)

IC50 [1]: > 10 µM (inconclusive) | IC50 [2]: > 10 µM (inactive)
SMILES: O=C1C2CCCCC2C(=O)N1c1nccs1 (stereo not drawn)

IC50 [11]: > 50 µM (inactive) | IC50 [12]: > 56.8 µM (not active)
SMILES: CC(=O)NC1=NC(=O)/C(=C/c2cn(C(C)=O)nc2-c2ccccc2)S1

IC50 [1]: > 100 µM (not active) | IC50 [2]: 1.7 µM (active)
SMILES: CCOc1cc(C)c(C)cc1S(=O)(=O)Nc1cccnc1

AC50 (Cytochrome P450 3A4): inconclusive | AC50 (Cytochrome P450 2C19): 15.8 µM (inconclusive) | AC50 (Cytochrome P450 2C9): 39.8 µM (inconclusive) | AC50 (Cytochrome P450 2D6): 0.00316 µM (inconclusive)
SMILES: Cc1cccc(C(=O)N2CCC(c3nc(-c4ccc(S(=O)(=O)N5CCOCC5)cc4)no3)CC2)c1

SMILES: C[C@@H]1CN([C@H](C)CO)S(=O)(=O)c2ccc(-c3ccc(C#N)cc3)cc2O[C@@H]1CN(C)Cc1cccc(F)c1
AC50 [13]: 25.8 µM (active) | AC50 (Paired box protein Pax-8): 3.4 µM (active) | AC50 [14]: 29.1 µM (active)

SMILES: CCCN1[C@H](C(=O)N2CCOCC2)[C@@H](CO)[C@@H]2Cn3c(ccc(/C=C/c4ccccc4)c3=O)[C@@H]21
AC50 [13]: > 70 µM (inactive) | AC50 (Paired box protein Pax-8): 48.2 µM (active)

IC50 [6]: 10.7 µM (active)
SMILES: COc1ccc(NS(=O)(=O)c2cccc(C(=O)N/N=C/c3c(F)c(F)c(F)c(F)c3F)c2)cc1
